# Test results as given in US20090074785A1, “Compositions and methods for treatment of colorectal cancer” (priority 2007, published 2009).
# Assays:
# IBABP-L = test: Regulation of expression of IBABP-L in Caco-2 cells, quantitative RT-PCR; format: cell-based, human; details: 24 h
# Method: (§1) The expression of IBABP-L and IBABP was measured by quantitative RT-PCR. The mRNA copy number of each variant is normalized to the expression the housekeeping gene ARPP0. Values in the figure represent the average of three experiments with each replicate performed in duplicate.
# (§2) To determine the relative expression levels of IBABP-L and IBABP, a two-step quantitative RT-PCR procedure was used. In the first step, complementary DNA (cDNA) was synthesized from total RNA. […] In the second step, quantitative PCR (QPCR) was carried out on a Mx 3000P Real-Time PCR System (Stratagene, La Jolla, Calif.) using a solution containing diluted cDNA (1:20; 2.0 μl), 1×SYBR Green PCR Master Mix (Applied Biosystems, Foster City, Calif.), and primers for IBABP-L, IBABP, or ARPP0 (0.25 μM). […]
# (§3) Regulation of expression of the IBABP variants in Caco-2 cells. […] Cells were harvested, cellular RNA was isolated using the RNeasy Mini Kit (Qiagen) according to manufacturer instruction, and expression of IBABP variants was determined by QPCR as described above.
# (§4) Bile acids differentially regulate the variants of IBABP. […] Caco-2 cells were treated with either chenodeoxycholic acid (CDCA), deoxycholic acid (DCA), or 9cRA, and the relative expression of transcripts encoding IBABP-L and IBABP was measured by quantitative RT-PCR (FIG. 10).
# BAR (FXR, NR1H4) = target: T1, BAR (FXR, NR1H4) (Homo sapiens, UniProt Q96RI1); details: gene-selective BAR modulator; cited from earlier work
# T1 sequence (Q96RI1 1-486): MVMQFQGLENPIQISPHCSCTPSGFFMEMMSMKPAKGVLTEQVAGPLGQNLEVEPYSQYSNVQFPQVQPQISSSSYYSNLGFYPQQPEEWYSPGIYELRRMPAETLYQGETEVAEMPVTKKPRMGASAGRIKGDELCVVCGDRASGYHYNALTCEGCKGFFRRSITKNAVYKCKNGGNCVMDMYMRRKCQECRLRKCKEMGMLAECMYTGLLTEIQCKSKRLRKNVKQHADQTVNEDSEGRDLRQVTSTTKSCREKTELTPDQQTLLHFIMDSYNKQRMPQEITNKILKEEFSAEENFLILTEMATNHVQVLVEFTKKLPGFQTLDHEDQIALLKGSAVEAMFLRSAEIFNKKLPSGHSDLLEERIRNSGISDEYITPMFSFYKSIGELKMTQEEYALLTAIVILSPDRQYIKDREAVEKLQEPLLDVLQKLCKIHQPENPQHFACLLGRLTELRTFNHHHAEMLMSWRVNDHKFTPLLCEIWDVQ
# IBABP = test: Regulation of expression of IBABP in Caco-2 cells, quantitative RT-PCR; format: cell-based, human; details: 100 nM, 24 h
# Method: as §1, §2, §3, §4
# IBABP-L promoter = IBABP-L promoter luciferase reporter in HCT 116 cells; format: cell-based, human; details: 25 ng/ml for 5 hr, HCT116 cells
# Method: To verify that NF-κB binds the response element and drives the expression of IBABP-L, a number of studies were performed with deletions and mutations of the promoter linked to a reporter gene (PGL3-Basic Luciferase), as shown in FIG. 18. These studies were performed in HCT 116 colon cancer cells, which have elevated expression of IBABP-L. The region containing the putative NF-κB binding motif (−1563/+78) was amplified from human genomic DNA by PCR. Deletion constructs of this promoter were made through PCR or restriction enzyme digestion. The G C mutation was made through site-directed mutagenesis. The wild type and modified promoters were inserted into PGL3 vector containing firefly Luciferase (Luc) reporter (Promega). Reporter vectors were constructed to either delete the entire putative NF-κB binding motif, or mutate the most conserved “G” to “C” within this motif. The wild type promoter and modified reporters were introduced into HCT 116 cells, and luciferase activity was analyzed at 24 hr.
# As shown in FIGS. 19A-C, a functional analysis of the IBABP-L promoter was performed. […] The luciferase activity was measured in 24 h and normalized to the Renilla signal in the absence of the IBABP-L promoter. […] Luciferase activity was measured in 24 hr and normalized. pRL-CMV was included in every transfection. […]
compound,measurement,setting,value
"C[C@H](CCC(=O)O)[C@H]1CC[C@H]2[C@@H]3[C@H](O)C[C@@H]4C[C@H](O)CC[C@]4(C)[C@H]3CC[C@]12C [CDCA, chenodeoxycholic acid]",effect on expression of IBABP-L,"IBABP-L; 100 μM, normalized to ARPP0",without effect
CCCCCCOc1c(\C(C)=C/C=C/C(C)=C/C(=O)O)cc(C(C)C)cc1C(C)C [AGN34],activity on CYP7A1,"BAR (FXR, NR1H4)",agonist
same,activity on IBABP,"BAR (FXR, NR1H4)",antagonist
same,activity on SHP,"BAR (FXR, NR1H4)",neutral
"CC1=C(/C=C/C(C)=C\C=C\C(C)=C\C(=O)O)C(C)(C)CCC1 [9cRA, 9-cis-retinoic acid]",effect on expression of IBABP-L,IBABP-L; 100 nM,without effect
same,effect on expression of IBABP,IBABP,up-regulated
tumor necrosis factor α [TNFα],transcription activity of the wild type IBABP-L promoter,IBABP-L promoter,increased
same,transcription activity of the mutated IBABP-L promoter,IBABP-L promoter; G to C mutation in NF-κB motif,not the mutated promoter
